# Earlier results, collected in patent publication US20260146034A1, “1H-CYCLOPENTA[B]BENZOFURAN DERIVATIVES FOR THE PREVENTION AND TREATMENT OF VIRUS DISEASES” (priority 2022, published 2026).
# Experiments:
# coronavirus = conditions: J. Virology, 2011, 6381
# SARS-COV-2 = conditions: eFFECTOR's Therapeutic, Apr. 30, 2020
# [1] = tested on: corona viruses, SARS and MERS virus
# [2] = tested on: RNA helicase enzyme elF4A; conditions: previous studies
compound,measurement,setting,value
4E2RCat,blocking coronavirus replication,coronavirus,capable of blocking coronavirus replication
COc1cc2c(c(OC)n1)[C@]1(O)[C@H](O)[C@H](CN(C)C)[C@@H](c3ccccc3)[C@]1(c1ccc(C#N)cc1)O2 [Zotatifin],anti viral activity against SARS-COV-2,SARS-COV-2,shows anti viral activity
Silvesterol,"antiviral activity against corona viruses, SARS and MERS virus",[1],broadspectrum antiviral activity
same,inhibition of the RNA helicase enzyme elF4A,[2],potent and selective inhibitor
